Measurements reported in patent publication US20080194652A1 (priority 2004, published 2008).

Key:
resistant P. falciparum = settings: literature; cited from earlier work
[1] = in vivo; cited from earlier work
[2] = system: CQ-resistant P. falciparum infection; settings: cited from earlier work
Plasmodium falciparum = assay: in vitro drug-resistance reversal, strain not stated; format: cell-based
P. falciparum strain 7G8 = assay: 72 hour microplate growth assay, SybrGreen I-based fluorescence readout, drug-resistance reversal; format: cell-based, Plasmodium falciparum; settings: for resistance reversal activity inferred from comparison of (+/−) with (+): indirect assessment, chloroquine, chloroquine and quinine; for decrease of CQ EC50 (chloroquine resistance reversal): with chloroquine, equimolar comparison of (+) and (+/−) CP
Protocol: (§1) Results were determined by SybrGreen I-based fluorescence assay.
(§2) This indirect assessment was required because only the antihistaminically-active (+) and (+/−) forms are available.

P. falciparum strain W2 = assay: as above; format: cell-based, Plasmodium falciparum; settings: for resistance reversal activity inferred from comparison of (+/−) with (+): indirect assessment, chloroquine, chloroquine and quinine; for decrease of CQ EC50 (chloroquine resistance reversal): with chloroquine, equimolar comparison of (+) and (+/−) CP
Protocol: as §1, §2

[3] = system: cardiac electrophysiology; settings: cited from earlier work
rodent malaria = settings: in vivo; cited from earlier work
[4] = listed as (+/−)chlorpheniramine
[5] = with quinine, equimolar comparison

Structure (SMILES): CNCCCN1c2ccccc2CCc2ccccc21 [desipramine]
- chloroquine resistance reversal in vitro (resistant P. falciparum): reversed chloroquine resistance
- chloroquine resistance reversal in primate animal trial [1]: reversed chloroquine resistance
- clinical outcome / cure rates ([2]; co-administered with chloroquine, clinical trials): ineffective

Structure (SMILES): COc1ccc(CCN(C)CCCC(C#N)(c2ccc(OC)c(OC)c2)C(C)C)cc1OC (stereo not shown) [verapamil]
- chloroquine resistance reversal in vitro (resistant P. falciparum): partially restored chloroquine sensitivity

Structure (SMILES): CN(C)CCC(c1ccccc1)c1ccccn1 (stereo not shown) [pheniramine]
- chloroquine resistance reversal (Plasmodium falciparum; with chloroquine, in vitro): chloroquine resistance reversal agents

Structure (SMILES): CN(C)CCC(c1ccc(F)cc1)c1ccccn1 (stereo not shown) [flupheniramine]
- chloroquine resistance reversal (Plasmodium falciparum; with chloroquine, in vitro): chloroquine resistance reversal agents

Structure (SMILES): CN(C)CCC(c1ccc(Cl)cc1)c1ccccn1 (single isomer, unassigned; (-)) [(−) CP, (−) chlorpheniramine]
- resistance reversal activity inferred from comparison of (+/−) with (+) (P. falciparum strain 7G8): active
- resistance reversal activity inferred from comparison of (+/−) with (+) (P. falciparum strain 7G8; listed as (−)chlorpheniramine): must be active
- resistance reversal activity inferred from comparison of (+/−) with (+) (P. falciparum strain W2): active
- resistance reversal activity inferred from comparison of (+/−) with (+) (P. falciparum strain W2; listed as (−)chlorpheniramine): must be active
- change of cardiac electrophysiology [3]: only at in vitro concentrations far above those needed to restore chloroquine sensitivity
- chloroquine resistance reversal (Plasmodium falciparum; inferred for the (−) isomer): reverses
- quinine resistance reversal (Plasmodium falciparum; inferred for the (−) isomer): reverses

Structure (SMILES): CN(C)CCC(c1ccc(Cl)cc1)c1ccccn1 (racemic) [(+/−) CP, chlorpheniramine]
- decrease of CQ EC50 (chloroquine resistance reversal) (P. falciparum strain 7G8): at least equivalent to (+) CP
- decrease of CQ EC50 (chloroquine resistance reversal) (P. falciparum strain 7G8; [4]): equivalent or slightly superior to the (+) isomer
- quinine resistance reversal (P. falciparum strain 7G8; [5]): equivalent or slightly superior to the (+) isomer
- decrease of CQ EC50 (chloroquine resistance reversal) (P. falciparum strain W2): at least equivalent to (+) CP
- decrease of CQ EC50 (chloroquine resistance reversal) (P. falciparum strain W2; [4]): equivalent or slightly superior to the (+) isomer
- quinine resistance reversal (P. falciparum strain W2; [5]): equivalent or slightly superior to the (+) isomer
- chloroquine resistance reversal in vitro (resistant P. falciparum): demonstrated effectiveness
- effectiveness in rodent malaria models (rodent malaria): demonstrated effectiveness
- drowsiness in clinical trials ([2]; in vivo): drowsiness was consistently found

Structure (SMILES): CN(C)CCC(c1ccc(Br)cc1)c1ccccn1 (stereo not shown) [brompheniramine]
- chloroquine resistance reversal (Plasmodium falciparum; with chloroquine, in vitro): chloroquine resistance reversal agents

Structure (SMILES): CN(C)CC[C@@H](c1ccc(Cl)cc1)c1ccccn1 [(+) CP, (+) chlorpheniramine]
- decrease of CQ EC50 (chloroquine resistance reversal) (P. falciparum strain 7G8): active
- decrease of CQ EC50 (chloroquine resistance reversal) (P. falciparum strain W2): active
